# Measurements as given in patent US5110815A, “5-amino-5,6,7,8-tetrahydroquinolines and related compounds and pharmaceutical use” (Hoechst-Roussel Pharmaceuticals Inc., priority 1990, dated 1992).
# Structures can show the parent of a compound that is named as a salt.
# Key:
# [1] = test system: scopolamine induced memory deficits; experiment: dark avoidance assay (reversal of scopolamine induced memory deficit); assay type: in vivo, male CFW mice; conditions: sc, scopolamine 3.0 mg/kg sc
# Text: The 5-amino-5,6,7,8-tetrahydroquinolines and related compounds of the present invention are useful as agents for the relief of memory dysfunction, particularly dysfunctions associated with decreased cholinergic activity such as those found in Alzheimer's disease. […] In this assay, three groups of 15 male CFW mice were used, a vehicle/vehicle control group, a scopolamine/vehicle group, and a scopolamine/drug group. Thirty minutes prior to training, the vehicle/vehicle control group received normal saline subcutaneously, and the scopolamine/vehicle and scopolamine/drug groups received scopolamine subcutaneously (3.0 mg/kg, administered as scopolamine hydrobromide). Five minutes prior to training, the vehicle/vehicle control and scopolamine/vehicle groups received distilled water and the scopolamine/drug group received the test compound in distilled water.
# The training/testing apparatus consisted of a plexiglass box approximately 48 cm long, 30 cm high and tapering from 26 cm wide at the top to 3 cm wide at the bottom. The interior of the box was divided equally by a vertical barrier into a light compartment (illuminated by 25-watt reflector lamp suspended 30 cm from the floor) and a dark compartment (covered). There was a hole at the bottom of the barrier 2.5 cm wide and 6 cm tall and a trap door which could be dropped to prevent an animal from passing between the two compartments. A Coulbourn Instruments small animal shocker was attached to two metal plates which ran the entire length of the apparatus, and a photocell was placed in the dark compartment 7.5 cm from the vertical barrier and 2 cm off the floor. The behavioral session was controlled by PDP 11/34 minicomputer.
# At the end of the pretreatment interval, an animal was placed in the light chamber directly under the light fixture, facing away from the door to the dark chamber. The apparatus was then covered and the system activated. If the mouse passed through the barrier to the dark compartment and broke the photocell beam within 180 seconds, the trap door dropped to block escape to the light compartment and an electric shock was administered at an intensity of 0.4 milliamps for three seconds. The animal was then immediately removed from the dark compartment and placed in its home cage. […] The latency in seconds for each mouse was recorded.
# The test day latency in seconds for each animal was recorded and the animals were then discarded.
# The high degree of variability (due to season of the year, housing conditions, and handling) found in one trial passive avoidance paradigm is well known. To control for this fact, individual cutoff (CO) values were determined for each test, compensating for interest variability. […] Thus, the CO value was defined as the second highest latency time in the control group to more accurately reflect the 1/15 expected control responders in each test group. Experiments with a variety of standards repeated under a number of environmental conditions led to the development of the following empirical criteria: for a valid test, the CO value had to be less than 120 sec and the vehicle/vehicle control group had to have at least 5/15 animals with latencies greater than CO. For a compound to be considered active the scopolamine/compound group had to have at least 3/15 mice with latencies greater than CO.
# The results of the dark avoidance test are expressed as the number of animals per group (%) in which this scopolamine induced memory deficit is blocked as measured by an increase in the latency period.
# Acetylcholinesterase = target: T1, Acetylcholinesterase (Rattus norvegicus, UniProt P37136); experiment: in vitro inhibition of acetylcholinesterase activity (modified Ellman assay, rat corpora striata homogenate); assay type: biochemical, Male Wistar rats; conditions: acetylthiocholine 5 millimolar final, pH 7.2, 10 min preincubation at 37° C
# T1 construct: corpora strita dissected free, weighed and homogenized in 19 volumes; from tissue; host or cells: corpora striata of male Wistar rats, crude homogenate in 0.05 M phosphate buffer pH 7.2
# Method: In this assay, a modification of a test described by G. L. Ellman, et al., Biochem. Pharmacol., 7, 88 (1961), the following reagents are prepared and employed:
# 1. 0.05M Phosphate Buffer (pH 7.2)
# A solution of monobasic sodium phosphate monhydrate (6.85 g) in distilled water (100 ml) is added to a solution of dibasic sodium phosphate heptahydrate (13.4 g) and distilled water (100 ml) until a pH of 7.2 was attained. The solution was diluted 1 to 10 with distilled water.
# The 0.05M Phosphate Buffer (pH 7.2) was added to acetylthiocholine (198 mg) to a total volume of 100 ml, i.e., a quantity sufficient (gs) to 100 ml.
# 3. 5,5-Dithiobisnitrobenzoic Acid in Buffer
# The 0.05M Phosphate Buffer (pH 7.2) was added to 5,5-dithiobisnitrobenzoic acid to a total volume of 100 ml, i.e., a quantity sufficient (gs) to 100 ml.
# 4. Stock Solution of Drug
# A 2 millimolar stock solution of the test drug is prepared in a quantity sufficient of a suitable solvent, either acetic acid or dimethyl sulfoxide to volume with 5,5-Dithiobisnitrobenzene Acid in Buffer. Stock Solution of Drug is serially diluted (1:10) so that the final cuvette concentration is 10^-4 molar.
# Male Wistar rats are decapitated, brains rapidly removed, corpora strita dissected free, weighed and homogenized in 19 volumes (approximately 7 mg potein/ml) of 0.05M phosphate Buffer (pH 7.2) using a Potter-Elvehjem homogenizer. A 25 μl aliquot of this suspension is added to 1 ml of the vehicle or various concentrations of the test drug and preincubated for 10 minutes at 37° C. Enzyme activity is measured with a Beckman DU-50 spectrophotometer with the following software and instrument settings:
# 1. Kinetics Soft-Pac™ Module #598273;
# 6. Cuvettes--2 ml cuvettes using auto 6--sampler;
# 7. Blank--1 for each substrate concentration;
# 8. Interval time--15 seconds (15 or 30 seconds for kinetics);
# 9. Total time--5 minutes (5 or 10 minutes for kinetics);
# 13. Results--yes (gives slope); and
# Reagents are added to the blank and sample cuvettes as follows:
# Blank values are determined for each run to control for non-enzymatic hydrolysis of substrate and these values are automatically subtracted by the Kindata program available on kinetics soft-pac module. This program also calculates the rate of absorbance change for each cuvette.
# 5,5-Dithiobisnitrobenzoic Acid concentration is 0.5 millimolar yielding 0.25 millimolar final concentration. [formula]
# T1 sequence (P37136 32-614): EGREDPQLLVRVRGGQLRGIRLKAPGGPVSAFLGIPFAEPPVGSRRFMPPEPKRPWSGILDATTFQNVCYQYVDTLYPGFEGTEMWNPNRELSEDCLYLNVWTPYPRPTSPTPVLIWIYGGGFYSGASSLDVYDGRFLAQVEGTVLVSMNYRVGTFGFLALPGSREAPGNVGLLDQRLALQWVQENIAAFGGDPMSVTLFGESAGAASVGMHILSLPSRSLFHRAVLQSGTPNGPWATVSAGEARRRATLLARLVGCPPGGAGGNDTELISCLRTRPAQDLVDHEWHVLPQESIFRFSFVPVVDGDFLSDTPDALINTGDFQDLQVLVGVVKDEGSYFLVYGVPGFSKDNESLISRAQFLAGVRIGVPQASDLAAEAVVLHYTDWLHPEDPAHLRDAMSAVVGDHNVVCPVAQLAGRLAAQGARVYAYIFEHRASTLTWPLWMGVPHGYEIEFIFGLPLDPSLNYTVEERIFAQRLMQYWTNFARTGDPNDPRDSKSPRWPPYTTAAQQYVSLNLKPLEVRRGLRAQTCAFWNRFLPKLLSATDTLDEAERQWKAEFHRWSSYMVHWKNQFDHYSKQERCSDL
SMILES,Percent of Animals with Scopolamine Induced Memory Deficit Reversal ([1]; dose 1.0 mg/kg),IC50 (Acetylcholinesterase),further results
"Cl.Cl.Cn1c2c(ccc1=O)C(NCCc1ccccc1)CCC2.O (stereo not shown) [5,6,7,8-Tetrahydro-1-methyl-5-[(2-phenylethyl)amino]-2(1H)-quinolinone dihydrochloride monohydrate]",33%,,
"CCCn1c2c(ccc1=O)C(NCCc1ccccc1)CCC2 (stereo not shown) [5,6,7,8-Tetrahydro-5-[(2-phenylethyl)amino]-1-propyl-2(1H)-quinolinone fumarate]",,3.1 µM,
"COc1ccc(CCNC2CCCc3c2ccc(=O)n3C)cc1 (stereo not shown) [5,6,7,8-Tetrahydro-5-[[2-(4-methoxyphenyl)ethyl]amino]-1-methyl-2(1H)-quinolinone]",,9.6 µM,Percent of Animals with Scopolamine Induced Memory Deficit Reversal ([1]; dose 0.3 mg/kg): 27%
"Cn1c2c(ccc1=O)C(NCCc1ccc(Cl)c(Cl)c1)CCC2 (stereo not shown) [5-[[2-(3,4-Dichlorophenyl)ethyl]amino]-5,6,7,8-tetrahydro-1-methyl-2(1H)-quinolinone]",21%,2.9 µM,
"Cn1c2c(ccc1=O)C(NCCc1ccc(Cl)cc1)CCC2 (stereo not shown) [5-[[2-(4-Chlorophenyl)ethyl]amino]-5,6,7,8-tetrahydro-1-methyl-2(1H)-quinolinone]",,6.6 µM,
"CC(=O)NC1(C)CCCc2[nH]c(=O)ccc21 (stereo not shown) [N-(1,2,5,6,7,8-Hexahydro-5-methyl-2-oxo-5-quinolinyl)acetamide]",,,Percent of Animals with Scopolamine Induced Memory Deficit Reversal ([1]; dose 0.16 mg/kg): 20%
"CC(=O)N(OCc1ccccc1)C1CCCc2nc(OCc3ccccc3)ccc21.Cl (stereo not shown) [N-(Phenylmethoxy)-N-[5,6,7,8-tetrahydro-2-(phenylmethoxy)-5-quinolinyl]acetamide hydrochloride]",20%,,
"CNC(=O)Oc1ccc2c(c1)[C@]1(C)CCN(C)[C@@H]1N2C [physostigmine, reference compound]",,,Percent of Animals with Scopolamine Induced Memory Deficit Reversal ([1]; dose 0.31 mg/kg): 20%
